Active and inactive are the calls of the source.
Experiments:
[1] = molecular target: T1, Probable nicotinate-nucleotide adenylyltransferase (Staphylococcus aureus (strain N315), UniProt P65502); type: functional, Staphylococcus aureus subsp. aureus N315;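 as to IC50 Mean: confirmatory dose-response retesting of NadD inhibitor hits first found in an ultra-high-throughput screen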
[2] = molecular target: T2, Cysteine protease ATG4B (Homo sapiens, UniProt Q9Y4P1); type: functional;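 also: Fluorescence-based dose-response confirmation assay measuring inhibition of ATG4B activity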
T2 sequence (Q9Y4P1 whole entry): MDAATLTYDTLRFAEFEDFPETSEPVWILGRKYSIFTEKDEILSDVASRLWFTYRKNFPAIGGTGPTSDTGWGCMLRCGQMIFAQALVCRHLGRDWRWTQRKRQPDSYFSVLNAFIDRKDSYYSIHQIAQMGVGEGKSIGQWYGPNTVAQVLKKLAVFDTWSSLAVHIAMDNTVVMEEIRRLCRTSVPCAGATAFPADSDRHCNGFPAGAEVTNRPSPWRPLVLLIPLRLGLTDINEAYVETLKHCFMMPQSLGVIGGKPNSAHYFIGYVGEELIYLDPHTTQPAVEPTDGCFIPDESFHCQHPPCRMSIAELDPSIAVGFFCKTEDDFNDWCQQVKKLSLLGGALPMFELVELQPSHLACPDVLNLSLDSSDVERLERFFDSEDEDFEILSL

[3] = molecular target: T1, Probable nicotinate-nucleotide adenylyltransferase; type: functional, Staphylococcus aureus subsp. aureus N315; conditions: read-out: IC50_Mean
[4] = molecular target: Phospholipase A2 (Homo sapiens, UniProt P04054); type: functional;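 also: confirmatory dose-response counterscreen on phospholipase A2, testing hits that came from an ultra-high-throughput screen for ATG4B inhibitors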
[5] = molecular target: T3, Galanin receptor type 3 (Homo sapiens, UniProt O60755); test: Fluorescence-based cell-based primary high throughput dose response assay to identify antagonists of the Galanin Receptor 3 (GalR3).; type: functional
T3 sequence (O60755 whole entry): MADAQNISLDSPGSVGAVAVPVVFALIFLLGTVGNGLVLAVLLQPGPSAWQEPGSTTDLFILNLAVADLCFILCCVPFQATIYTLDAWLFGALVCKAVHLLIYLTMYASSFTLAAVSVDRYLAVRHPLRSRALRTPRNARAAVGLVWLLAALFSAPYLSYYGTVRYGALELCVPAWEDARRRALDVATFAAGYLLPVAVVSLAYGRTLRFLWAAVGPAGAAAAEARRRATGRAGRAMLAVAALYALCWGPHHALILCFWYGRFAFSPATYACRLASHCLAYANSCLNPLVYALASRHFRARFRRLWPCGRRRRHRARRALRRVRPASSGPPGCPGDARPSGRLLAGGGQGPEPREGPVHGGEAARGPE

[6] = cells; type: functional, cell-based; conditions: HEK-CNG
[7] = molecular target: T4, Calpain-2 catalytic subunit (Sus scrofa, UniProt P43367); test: pig calpain II inhibitor potency, dose response, biochemical, fluorogenic peptide substrate (AID 1420); type: functional
T4 sequence (P43367 whole entry): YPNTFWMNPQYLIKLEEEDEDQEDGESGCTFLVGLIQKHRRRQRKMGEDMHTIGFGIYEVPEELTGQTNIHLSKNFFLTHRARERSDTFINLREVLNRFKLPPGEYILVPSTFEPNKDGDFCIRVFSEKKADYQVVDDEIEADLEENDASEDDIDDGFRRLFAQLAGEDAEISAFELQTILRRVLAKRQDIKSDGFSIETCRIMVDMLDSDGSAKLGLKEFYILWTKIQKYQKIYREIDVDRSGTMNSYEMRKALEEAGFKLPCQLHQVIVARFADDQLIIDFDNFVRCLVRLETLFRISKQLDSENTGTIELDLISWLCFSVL

[8] = test system: BJ; test: cytotoxicity toward Ras-transformed BJeLR fibroblasts, dose response, cell-based, alamar blue fluorescence, cherrypicked samples (AID 2631); type: functional; conditions: Homo sapiens;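 also: confirmatory dose-response assay in RAS-dependent BJ fibroblasts engineered with TERT, LT and ST, with cytotoxicity read by fluorescence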
[9] = test system: BJ; test: cytotoxicity toward BJ-TERT-LT-ST fibroblasts, dose response, cell-based, RAS-independent, luminescence (AID 1935); type: functional; conditions: Homo sapiens;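 also: BJ fibroblasts immortalized with TERT plus LT and ST oncogenes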
[10] = test system: BJ; test: cells; type: functional, cell-based; conditions: Homo sapiens
[11] = cytotoxicity in HEK-293T cells, dose response, cytotoxicity control for TCR NF-kB inhibitor project, luminescence, T-cell screen hits (AID 489026); type: functional, cell-based;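 also: cells exposed to compound about 14 hours before the viability readout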
[12] = cytotoxicity toward DRD oncogenic fibroblasts, dose response, cell-based, non-viral oncogenic, luminescence (AID 1934); type: functional; conditions: Homo sapiens
[13] = test system: BJ; test: cytotoxicity toward BJ-TERT fibroblasts, dose response, cell-based, RAS-independent, luminescence (AID 1933); type: functional; conditions: Homo sapiens
[14] = test system: Streptococcus; test: Group A Streptococcus viability loss, dose response, counter-screen for streptokinase expression inhibitor project, luminescence, BacTiterGlo (AID 1915); type: functional, organism-based;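 also: potency for reduction of bacterial viability or growth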
[15] = test system: Streptococcus sp. 'group A'; test: growth inhibition of control SK(-) GAS strain, dose response, counter-screen for streptokinase expression inhibitor project, luminescence, kanamycin, BacTiterGlo, confirmation (AID 1900); type: functional, organism-based
[16] = molecular target: T5, DNA repair protein RAD52 homolog (Homo sapiens, UniProt P43351); type: functional, biochemical
T5 sequence (P43351 whole entry): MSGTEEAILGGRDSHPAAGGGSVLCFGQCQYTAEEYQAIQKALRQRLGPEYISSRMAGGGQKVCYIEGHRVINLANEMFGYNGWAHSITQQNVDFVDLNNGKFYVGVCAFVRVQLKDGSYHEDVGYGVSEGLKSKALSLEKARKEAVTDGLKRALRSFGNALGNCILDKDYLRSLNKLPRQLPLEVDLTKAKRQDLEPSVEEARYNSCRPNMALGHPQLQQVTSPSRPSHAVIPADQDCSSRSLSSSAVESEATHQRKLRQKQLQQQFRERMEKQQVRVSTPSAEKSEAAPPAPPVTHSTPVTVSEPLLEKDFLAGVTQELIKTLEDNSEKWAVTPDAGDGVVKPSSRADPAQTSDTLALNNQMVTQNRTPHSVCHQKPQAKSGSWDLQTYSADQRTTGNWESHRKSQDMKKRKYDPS

[17] = molecular target: T6, DNA repair and recombination protein RAD54-like (Homo sapiens, UniProt Q92698); test: inhibitors of human RAD54 branch migration, confirmation, biochemical, fluorescence, cherry-picked samples, dose series (AID 651657); type: functional
T6 sequence (Q92698 whole entry): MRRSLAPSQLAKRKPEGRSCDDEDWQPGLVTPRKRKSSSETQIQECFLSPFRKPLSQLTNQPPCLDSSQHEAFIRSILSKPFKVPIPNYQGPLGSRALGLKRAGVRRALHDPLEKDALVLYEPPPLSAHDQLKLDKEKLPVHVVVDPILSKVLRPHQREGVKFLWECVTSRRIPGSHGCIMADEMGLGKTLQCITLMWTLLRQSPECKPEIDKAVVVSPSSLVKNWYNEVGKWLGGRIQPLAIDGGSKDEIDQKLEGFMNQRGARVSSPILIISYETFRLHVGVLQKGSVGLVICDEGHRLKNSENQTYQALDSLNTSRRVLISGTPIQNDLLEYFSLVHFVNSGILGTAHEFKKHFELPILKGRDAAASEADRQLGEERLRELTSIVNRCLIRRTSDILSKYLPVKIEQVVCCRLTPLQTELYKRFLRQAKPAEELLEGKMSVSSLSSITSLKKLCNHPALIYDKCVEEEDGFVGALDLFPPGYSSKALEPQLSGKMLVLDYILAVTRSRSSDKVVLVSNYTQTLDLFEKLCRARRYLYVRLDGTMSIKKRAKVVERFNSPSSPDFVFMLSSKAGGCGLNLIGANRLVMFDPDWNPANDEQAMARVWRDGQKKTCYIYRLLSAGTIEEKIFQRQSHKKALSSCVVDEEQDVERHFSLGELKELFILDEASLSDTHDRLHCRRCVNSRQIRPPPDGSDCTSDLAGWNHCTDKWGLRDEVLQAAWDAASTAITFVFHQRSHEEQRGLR

[18] = molecular target: T7, Sentrin-specific protease 8 (Homo sapiens, UniProt Q96LD8); type: functional
T7 sequence (Q96LD8 whole entry): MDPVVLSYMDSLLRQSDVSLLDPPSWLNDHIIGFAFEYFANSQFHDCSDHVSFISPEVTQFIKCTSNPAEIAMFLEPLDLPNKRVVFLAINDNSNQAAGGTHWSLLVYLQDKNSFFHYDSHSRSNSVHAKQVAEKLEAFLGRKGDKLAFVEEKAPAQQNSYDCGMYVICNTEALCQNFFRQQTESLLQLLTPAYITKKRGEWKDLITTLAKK

[19] = molecular target: T7, Sentrin-specific protease 8; type: functional; remark: listed apart in the source

T1 sequence (P65502 whole entry): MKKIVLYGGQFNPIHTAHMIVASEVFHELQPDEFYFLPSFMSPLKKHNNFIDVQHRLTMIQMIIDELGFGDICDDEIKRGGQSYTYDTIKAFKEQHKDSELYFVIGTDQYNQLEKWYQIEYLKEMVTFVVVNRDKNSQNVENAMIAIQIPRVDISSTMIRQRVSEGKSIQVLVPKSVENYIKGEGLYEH
Phospholipase A2, sequence (P04054 whole entry): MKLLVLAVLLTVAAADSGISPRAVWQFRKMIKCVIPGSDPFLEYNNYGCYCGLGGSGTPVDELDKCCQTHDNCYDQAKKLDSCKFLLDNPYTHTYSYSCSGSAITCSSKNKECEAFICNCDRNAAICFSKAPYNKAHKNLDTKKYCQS

SMILES: CCCc1cc(=O)[nH]c(SCC(=O)N2N=C(c3ccc(Cl)cc3)CC2c2ccco2)n1 (configuration not stated)
- IC50 [1]: 9.52 µM (active)
- IC50 [2]: 20.5 µM (inactive)
- IC50 [3]: 52.9 µM (active)
- IC50 [4]: 16.6 µM (active)

SMILES: O=C(O)Cc1sc(NC2CCCCC2)nc1-c1ccc(Cl)cc1
- IC50 [2]: 21 µM (inactive)
- IC50 [4]: 8.63 µM (active)

SMILES: Cn1c(N)c(C(=O)COC(=O)c2cnc(Cl)c(Cl)c2)c(=O)n(C)c1=O
- IC50 [5]: > 29.9 µM (inactive)
- EC50 [6]: > 29.9 µM (inactive)
- IC50 [7]: 10.1 µM (active)

SMILES: C[C@@H]1C=CC(=O)O[C@@H]1c1ccc(Cl)cc1
- EC50 [8]: 0.547 µM (active)
- EC50 [9]: 16.7 µM (active)
- EC50 [10]: 23.8 µM (active)
- IC50 [11]: > 80 µM (inactive)
- EC50 [12]: 5.84 µM (active)
- EC50 [13]: 21.3 µM (active)

SMILES: CC(C)(C)C(=O)NC(=S)NNC(=O)c1ccc(Cl)cc1Cl
- IC50 [5]: > 29.9 µM (inactive)
- EC50 [14]: 5.5 µM (active)
- EC50 [15]: 1.88 µM (active)
- EC50 [6]: > 29.9 µM (inactive)

SMILES: Cc1cccn2c(=O)c3cc(C(=O)NCCN4CCOCC4)c(=N)n(CCCN4CCOCC4)c3nc12
- AC50 [16]: 4.63 µM (active)
- AC50 [17]: 8.19 µM (active)

SMILES: CCOC(=O)c1c(-c2ccccc2Cl)csc1NC(=O)CSc1nc(C)cc(=O)[nH]1
- IC50 [1]: 11.6 µM (active)
- IC50 [3]: 28.7 µM (active)

SMILES: COc1ccc(-c2nn(C)c3sc(C(=O)NCCN(C)C)cc23)cc1OC
- AC50 [16]: 2.35 µM (active)
- AC50 [17]: 6.36 µM (active)

SMILES: O=C(c1ncn(Cc2ccccc2)c1C(=O)N1CCc2ccccc2C1)N1CCc2ccccc2C1
- IC50 [18]: 16 µM (active)
- IC50 [19]: > 100 µM (inactive)

— ChEMBL document CHEMBL1201862, “PubChem BioAssay data set” (2004)
